Laboratory results reported in ChEMBL document CHEMBL5724914, “Linking interpersonal differences in gut microbiota composition and drug biotransformation activity” (2024).

Experiments:
[1] = The drug is tested on Z-020 corresponding to rabbit gut metagenome with ENA study accession number: PRJEB37062 and ENA sample accession number: ERS12561819 for biotransformation under anaerobic condition. The drug concentrations were measured over 9 timepoints collected between 0 and 24 hours of incubation by liquid-chromatography-coupled mass spectrometry (LC–MS); conditions: 2 µM
[2] = human gut metagenome, 24 h, 2 µM
[3] = human gut metagenome, 24 h, 2 µM; remark: listed apart in the source
[4] = The drug is tested on WLS-240 corresponding to human gut metagenome with ENA study accession number: PRJEB37062 and ENA sample accession number: ERS12561773 for biotransformation under anaerobic condition. The drug concentrations were measured over 9 timepoints collected between 0 and 24 hours of incubation by liquid-chromatography-coupled mass spectrometry (LC–MS); conditions: 2 µM
[5] = The drug is tested on Z-001 corresponding to mouse gut metagenome with ENA study accession number: PRJEB37062 and ENA sample accession number: ERS12561801 for biotransformation under anaerobic condition. The drug concentrations were measured over 9 timepoints collected between 0 and 24 hours of incubation by liquid-chromatography-coupled mass spectrometry (LC–MS); conditions: 2 µM
[6] = The drug is tested on WLS-007 corresponding to human gut metagenome with ENA study accession number: PRJEB37062 and ENA sample accession number: ERS12561742 for biotransformation under anaerobic condition. The drug concentrations were measured over 9 timepoints collected between 0 and 24 hours of incubation by liquid-chromatography-coupled mass spectrometry (LC–MS); conditions: 2 µM
[7] = The drug is tested on Z-021 corresponding to metagenome with ENA study accession number: PRJEB37062 and ENA sample accession number: ERS12561820 for biotransformation under anaerobic condition. The drug concentrations were measured over 9 timepoints collected between 0 and 24 hours of incubation by liquid-chromatography-coupled mass spectrometry (LC–MS); conditions: 2 µM
[8] = human gut metagenome, 24 h, 2 µM; remark: listed apart in the source
[9] = The drug is tested on Z-029 corresponding to rat gut metagenome with ENA study accession number: PRJEB37062 and ENA sample accession number: ERS12561828 for biotransformation under anaerobic condition. The drug concentrations were measured over 9 timepoints collected between 0 and 24 hours of incubation by liquid-chromatography-coupled mass spectrometry (LC–MS); conditions: 2 µM
[10] = human gut metagenome, 24 h, 2 µM; remark: listed apart in the source
[11] = The drug is tested on Z-024 corresponding to pig gut metagenome with ENA study accession number: PRJEB37062 and ENA sample accession number: ERS12561823 for biotransformation under anaerobic condition. The drug concentrations were measured over 9 timepoints collected between 0 and 24 hours of incubation by liquid-chromatography-coupled mass spectrometry (LC–MS); conditions: 2 µM
[12] = The drug is tested on WLS-039 corresponding to human gut metagenome with ENA study accession number: PRJEB37062 and ENA sample accession number: ERS12561746 for biotransformation under anaerobic condition. The drug concentrations were measured over 9 timepoints collected between 0 and 24 hours of incubation by liquid-chromatography-coupled mass spectrometry (LC–MS); conditions: 2 µM
[13] = human gut metagenome, 24 h, 2 µM; remark: listed apart in the source
[14] = The drug is tested on Z-004 corresponding to metagenome with ENA study accession number: PRJEB37062 and ENA sample accession number: ERS12561804 for biotransformation under anaerobic condition. The drug concentrations were measured over 9 timepoints collected between 0 and 24 hours of incubation by liquid-chromatography-coupled mass spectrometry (LC–MS); conditions: 2 µM
[15] = human gut metagenome, 24 h, 2 µM; remark: listed apart in the source
[16] = The drug is tested on WLS-069 corresponding to human gut metagenome with ENA study accession number: PRJEB37062 and ENA sample accession number: ERS12561748 for biotransformation under anaerobic condition. The drug concentrations were measured over 9 timepoints collected between 0 and 24 hours of incubation by liquid-chromatography-coupled mass spectrometry (LC–MS); conditions: 2 µM
[17] = The drug is tested on Z-006 corresponding to mouse gut metagenome with ENA study accession number: PRJEB37062 and ENA sample accession number: ERS12561806 for biotransformation under anaerobic condition. The drug concentrations were measured over 9 timepoints collected between 0 and 24 hours of incubation by liquid-chromatography-coupled mass spectrometry (LC–MS); conditions: 2 µM
[18] = human gut metagenome, 24 h, 2 µM; remark: listed apart in the source
[19] = The drug is tested on WLS-170 corresponding to human gut metagenome with ENA study accession number: PRJEB37062 and ENA sample accession number: ERS12561762 for biotransformation under anaerobic condition. The drug concentrations were measured over 9 timepoints collected between 0 and 24 hours of incubation by liquid-chromatography-coupled mass spectrometry (LC–MS); conditions: 2 µM
[20] = The drug is tested on Z-011 corresponding to mouse gut metagenome with ENA study accession number: PRJEB37062 and ENA sample accession number: ERS12561811 for biotransformation under anaerobic condition. The drug concentrations were measured over 9 timepoints collected between 0 and 24 hours of incubation by liquid-chromatography-coupled mass spectrometry (LC–MS); conditions: 2 µM
Further: call rule not given here.

Bacterial Biotransformation [1] | Bacterial Biotransformation [2] | Bacterial Biotransformation [3] | Bacterial Biotransformation [4] | Bacterial Biotransformation [5] | Bacterial Biotransformation [6] | Bacterial Biotransformation [7] | Bacterial Biotransformation [8] | Bacterial Biotransformation [9] | Bacterial Biotransformation [10] | Bacterial Biotransformation [11] | Bacterial Biotransformation [12] | Bacterial Biotransformation [13] | Bacterial Biotransformation [14] | Bacterial Biotransformation [15] | Bacterial Biotransformation [16] | Bacterial Biotransformation [17] | Bacterial Biotransformation [18] | Bacterial Biotransformation [19] | Bacterial Biotransformation [20] | Compound
Compound NOT metabolized | Compound NOT metabolized | Compound NOT metabolized | Compound metabolized | Compound NOT metabolized | Compound NOT metabolized | Compound metabolized | Compound metabolized | Compound NOT metabolized | Compound NOT metabolized | Compound metabolized | Compound metabolized | Compound NOT metabolized | Compound NOT metabolized | Compound NOT metabolized | Compound NOT metabolized | Compound NOT metabolized | Compound metabolized | Compound metabolized | Compound NOT metabolized | CN1CCC(OC(c2ccccc2)c2ccccc2)CC1
Compound NOT metabolized |  | Compound NOT metabolized | Compound metabolized | Compound NOT metabolized | Compound metabolized | Compound NOT metabolized | Compound metabolized | Compound metabolized | Compound metabolized | Compound metabolized | Compound metabolized | Compound metabolized | Compound NOT metabolized | Compound metabolized | Compound metabolized | Compound NOT metabolized | Compound NOT metabolized |  | Compound NOT metabolized | CC1=C(CC(=O)O)c2cc(F)ccc2/C1=C\c1ccc([S+](C)[O-])cc1 (stereo not given)
Compound NOT metabolized | Compound NOT metabolized | Compound NOT metabolized | Compound metabolized | Compound NOT metabolized | Compound metabolized | Compound NOT metabolized | Compound NOT metabolized | Compound NOT metabolized | Compound metabolized | Compound NOT metabolized | Compound metabolized | Compound metabolized | Compound NOT metabolized | Compound metabolized | Compound metabolized | Compound NOT metabolized | Compound metabolized | Compound metabolized | Compound NOT metabolized | CCOC(=O)[C@H](CCc1ccccc1)N[C@@H](C)C(=O)N1Cc2ccccc2C[C@H]1C(=O)O
Compound metabolized | Compound NOT metabolized | Compound NOT metabolized |  | Compound NOT metabolized |  | Compound metabolized | Compound NOT metabolized | Compound NOT metabolized | Compound metabolized | Compound metabolized | Compound metabolized | Compound NOT metabolized | Compound NOT metabolized | Compound NOT metabolized | Compound metabolized | Compound NOT metabolized | Compound NOT metabolized | Compound NOT metabolized | Compound NOT metabolized | COc1ccc(/C=C/C(=O)Nc2ccccc2C(=O)O)cc1OC
Compound NOT metabolized | Compound NOT metabolized | Compound NOT metabolized | Compound metabolized | Compound NOT metabolized | Compound NOT metabolized | Compound NOT metabolized | Compound NOT metabolized | Compound NOT metabolized | Compound NOT metabolized | Compound NOT metabolized | Compound NOT metabolized | Compound NOT metabolized | Compound NOT metabolized | Compound NOT metabolized | Compound NOT metabolized | Compound NOT metabolized | Compound NOT metabolized | Compound metabolized | Compound NOT metabolized | CCN1CCCC1CNC(=O)c1cc(S(=O)(=O)CC)c(N)cc1OC (stereo not given) [AMISULPRIDE]
Compound metabolized | Compound NOT metabolized | Compound metabolized | Compound metabolized | Compound metabolized | Compound metabolized | Compound metabolized |  | Compound NOT metabolized | Compound metabolized | Compound metabolized | Compound metabolized | Compound NOT metabolized | Compound metabolized | Compound metabolized | Compound metabolized | Compound metabolized | Compound metabolized | Compound metabolized | Compound metabolized | C#C[C@]1(OC(C)=O)CC[C@H]2[C@@H]3CCC4=C[C@@H](OC(C)=O)CC[C@@H]4[C@H]3CC[C@@]21C [ETHYNODIOL DIACETATE]
